Assay results taken from US6737383B1, “Herbicidal oxadiazolidines” (priority 1999, dated 2004).

Legend:
morningglory = test: Test B pre/postemergence morningglory; type: in vivo, Ipomoea hederacea
In short: (§1)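 Response is a visual 0-to-10 score relative to untreated plants, where 0 means no effect and 10 means complete control, taken twelve to sixteen days after application. Treatments went onto soil at planting and onto foliage of 1- to 4-leaf plants, using a surfactant-containing non-phytotoxic solvent.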

cocklebur = test: Test B pre/postemergence cocklebur; type: in vivo, Xanthium strumarium
In short: as §1

pigweed = test: Test B pre/postemergence pigweed; type: in vivo, Amaranthus retroflexus
In short: as §1

soybean = test: Test B pre/postemergence soybean; type: in vivo, Glycine max
In short: as §1

[1] = Preemergence, Rate 62 g/ha, scale of 0 to 10 where 0 is no effect and 10 is complete control
[2] = Preemergence, Rate 250 g/ha, scale of 0 to 10 where 0 is no effect and 10 is complete control
[3] = Preemergence, Rate 500 g/ha, scale of 0 to 10 where 0 is no effect and 10 is complete control
[4] = Rate 62 g/ha, Postemergence, scale 0 to 10 (0 no effect, 10 complete control)
[5] = Rate 125 g/ha, Postemergence, scale of 0 to 10 where 0 is no effect and 10 is complete control
[6] = Rate 250 g/ha, Postemergence, scale of 0 to 10 where 0 is no effect and 10 is complete control
[7] = Rate 500 g/ha, Postemergence, scale 0 to 10, 0 no effect, 10 complete control
[8] = Postemergence, Rate 125 g/ha, scale 0 to 10, 0 is no effect, 10 is complete control
[9] = Postemergence, Rate 250 g/ha, scale 0 to 10, 0 is no effect, 10 is complete control
[10] = Postemergence, Rate 1000 g/ha, scale 0 to 10 (0 no effect, 10 complete control)
[11] = Rate 1000 g/ha, Preemergence, scale 0 to 10 (0 no effect, 10 complete control)
[12] = Preemergence, Rate 62 g/ha, scale 0 to 10 (0 no effect, 10 complete control)
[13] = Rate 62 g/ha, Postemergence, scale of 0 to 10 where 0 is no effect and 10 is complete control

Row | Compound | Morningglory plant response rating (0 to 10 scale) (morningglory; Preemergence, Rate 125 g/ha) | Morningglory plant response rating (morningglory; [2]) | Morningglory plant response rating (morningglory; [3]) | Cocklebur plant response rating (0 to 10 scale) (cocklebur; Preemergence, Rate 125 g/ha) | Cocklebur plant response rating (cocklebur; [3]) | Redroot pigweed plant response rating (0 to 10 scale) (pigweed; Preemergence, Rate 125 g/ha) | Redroot pigweed plant response rating (pigweed; [2]) | Redroot pigweed plant response rating (pigweed; [3]) | Soybean plant response rating (0 to 10 scale) (soybean; Preemergence, Rate 125 g/ha) | Soybean plant response rating (soybean; [2]) | Soybean plant response rating (soybean; [3]) | Plant response rating, Morningglory (morningglory; [8]) | Plant response rating, Morningglory (morningglory; [7]) | Plant response rating, Cocklebur (cocklebur; [8]) | Cocklebur plant response rating (cocklebur; [2]) | Plant response rating, Cocklebur (cocklebur; [7]) | Plant response rating, Redroot pigweed (pigweed; [8]) | Plant response rating, Redroot pigweed (pigweed; [7]) | Plant response rating, Soybean (soybean; [8]) | Plant response rating, Soybean (soybean; [7]) | further results
1 | CC(C)N(C(=O)n1oc(=O)n(Cc2nnsc2Cl)c1=O)c1ccc(F)cc1F [Compound 320] | 0 | 0 | 0 | 0 | 0 | 0 | 0 | 0 | 0 | 0 | 0 | – | – | – | – | – | – | – | – | – | Morningglory plant response rating (morningglory; [1]): 0; Morningglory plant response rating (morningglory; [4]): 1; Morningglory plant response rating (morningglory; [5]): 1; Plant response rating, Morningglory (morningglory; [6]): 3; Cocklebur plant response rating (cocklebur; [1]): 0; Cocklebur plant response rating (cocklebur; [4]): 0; Cocklebur plant response rating (cocklebur; [5]): 0; Plant response rating, Cocklebur (cocklebur; [6]): 0; Cocklebur plant response rating (cocklebur; [7]): 0; Redroot pigweed plant response rating (pigweed; [1]): 0; Redroot pigweed plant response rating (pigweed; [4]): 3; Redroot pigweed plant response rating (pigweed; [5]): 6; Plant response rating, Redroot pigweed (pigweed; [6]): 6; Soybean plant response rating (soybean; [1]): 0; Soybean plant response rating (soybean; [4]): 2; Soybean plant response rating (soybean; [5]): 3; Plant response rating, Soybean (soybean; [6]): 3
2 | CC(C)N(C(=O)n1oc(=O)n(C2CC3CCC2C3)c1=O)c1ccc(F)cc1 (stereo not drawn) [Compound 327] | 0 | 0 | 0 | 0 | 0 | 0 | 1 | 3 | 0 | 0 | 0 | 8 | 10 | 0 | 0 | 0 | 5 | 7 | 6 | 7 | Morningglory plant response rating (morningglory; [1]): 0; Morningglory plant response rating (morningglory; [4]): 7; Plant response rating, Morningglory (morningglory; [6]): 8; Cocklebur plant response rating (cocklebur; [1]): 0; Cocklebur plant response rating (cocklebur; [4]): 0; Plant response rating, Cocklebur (cocklebur; [6]): 0; Redroot pigweed plant response rating (pigweed; [1]): 0; Redroot pigweed plant response rating (pigweed; [4]): 4; Plant response rating, Redroot pigweed (pigweed; [6]): 6; Soybean plant response rating (soybean; [1]): 0; Soybean plant response rating (soybean; [4]): 5; Plant response rating, Soybean (soybean; [6]): 6
3 | CCOC(=O)C(C)N(C(=O)n1oc(=O)n(C)c1=O)c1ccc(F)cc1 (stereo not drawn) [Compound 365] | 0 | 0 | 0 | 0 | 0 | 0 | 0 | 0 | 0 | 0 | 0 | 0 | 0 | 0 | 0 | 0 | 0 | 0 | 0 | 2 | Plant response rating, Morningglory (morningglory; [9]): 0; Morningglory plant response rating (morningglory; [10]): 0; Plant response rating, Morningglory (morningglory; [11]): 0; Plant response rating, Cocklebur (cocklebur; [9]): 0; Cocklebur plant response rating (cocklebur; [10]): 0; Plant response rating, Cocklebur (cocklebur; [11]): 0; Plant response rating, Redroot pigweed (pigweed; [9]): 0; Redroot pigweed plant response rating (pigweed; [10]): 0; Plant response rating, Redroot pigweed (pigweed; [11]): 0; Plant response rating, Soybean (soybean; [9]): 2; Soybean plant response rating (soybean; [10]): 3; Plant response rating, Soybean (soybean; [11]): 0
4 | CC(C)N(C(=O)n1oc(=O)n(C)c1=O)c1ccc(F)cc1F [Compound 368] | 1 | 3 | 5 | 0 | 0 | 10 | 10 | 10 | 2 | 7 | 8 | 4 | 7 | 2 | 0 | 5 | 3 | 7 | 5 | 5 | Plant response rating, Morningglory (morningglory; [9]): 5; Plant response rating, Morningglory (morningglory; [12]): 0; Morningglory plant response rating (morningglory; [13]): 2; Plant response rating, Cocklebur (cocklebur; [9]): 3; Plant response rating, Cocklebur (cocklebur; [12]): 0; Cocklebur plant response rating (cocklebur; [13]): 0; Plant response rating, Redroot pigweed (pigweed; [9]): 4; Plant response rating, Redroot pigweed (pigweed; [12]): 10; Redroot pigweed plant response rating (pigweed; [13]): 2; Plant response rating, Soybean (soybean; [9]): 5; Plant response rating, Soybean (soybean; [12]): 0; Soybean plant response rating (soybean; [13]): 4
5 | CC(C)N(C(=O)n1oc(=O)n(N2C(C)CCCC2C)c1=O)c1ccc(F)cc1F (stereo not drawn) [Compound 383] | 0 | 0 | 0 | 0 | 0 | 0 | 0 | 3 | 0 | 0 | 0 | 0 | 0 | 0 | 0 | 0 | 0 | 0 | 3 | 5 | Plant response rating, Morningglory (morningglory; [9]): 0; Plant response rating, Morningglory (morningglory; [12]): 0; Morningglory plant response rating (morningglory; [13]): 0; Plant response rating, Cocklebur (cocklebur; [9]): 0; Plant response rating, Cocklebur (cocklebur; [12]): 0; Cocklebur plant response rating (cocklebur; [13]): 0; Plant response rating, Redroot pigweed (pigweed; [9]): 0; Plant response rating, Redroot pigweed (pigweed; [12]): 0; Redroot pigweed plant response rating (pigweed; [13]): 0; Plant response rating, Soybean (soybean; [9]): 3; Plant response rating, Soybean (soybean; [12]): 0; Soybean plant response rating (soybean; [13]): 2
